In patent publication US20240246954A1, “COMPOSITIONS AND METHODS FOR INHIBITING KRAS” (TheRas, Inc., priority 2021, published 2024):

Tests used:
[1] = system: pERK in GP2d cells (KRAS G12D); experiment: Cell-based pERK HTRF assay; conditions: GP2d, 1 h, 60 min incubation
Procedure: Biological Example 3. Cell-Based pERK HTRF Assay
pERK assay (Perkin Elmer) was used to determine the effectiveness of compounds in disrupting KRAS G12D protein/effector signaling in cells.
On Day 1, cells (GP2d) were seeded into 96-well plates at 3×10^4 cells/well in 80 μl complete growth media (DMEM, 10% FBS).
On Day 2, cells were treated with compounds at 0.25% DMSO. The source plate was created with compounds diluted in media at 5-fold the final assay concentration. The compounds were run in a 9-point concentration curve starting at 1 μM, with a half-log dilution between concentrations. 20 μL was transferred onto the cell plates (final volume in wells was 100 μL). Plates were harvested after 60 min incubation by aspirating media and adding kit-supplied 1× supplemented lysis buffer to all wells (50 μl per well). Plates were then placed on a plate shaker and incubated at 850 rpm for an additional 30 min.
Antibody mixture solution is prepared by diluting aliquoted d2 and Eu Cryptate antibodies 1:20 in kit supplied detection buffer, mix the diluted antibodies solutions (1:1 v:v). Four μL of this solution is then added to a 384-well detection plate (Perkin Elmer; 6008230).
Samples were homogenized by pipetting up and down and then transferred (16 μL of cell lysates) from the 96-well cell culture plate to two wells of the HTRF 384-well detection plate containing the antibody solution. Plates were centrifuged (524 g for 1 min) and allowed to incubate between 4 and 24 h at room temperature. Maximum signal is reached after 4 h incubation time and remains stable over a period of 24 hours. Therefore, readings can be made between 4 and 24 h of incubation. Plates were centrifuged again (524 g for 1 min), then analyzed on the EnVision plate reader using the following settings: Excitation 320 nm, Bandwidth 75 nm; Emission 615 nm, Bandwidth 85 nm; Gain 100%; Flashes 100; Lag 60 μs.

[2] = molecular target: T1, Avi-KRAS G12D (1-169) GppNHp/RAF1 RBD-3×FLAG (52-151) (Homo sapiens, UniProt P01116, G12D); experiment: HTRF Raf1-KRAS G12D-GppNHp disruption assay; format: biochemical; conditions: 1 h incubation
T1 construct: Avi-KRAS G12D (1-169) GppNHp
In short: (§1)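 Compounds titrated from 100 μM in a 10-point series, incubated with protein mix 1 h at room temperature, then HTRF reagents a further 1 h. Time-resolved fluorescence read (excitation 320 nm, emission 615 nm); activity expressed as percentage of DMSO control.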

[3] = molecular target: T2, Avi-KRAS G12D/Q25A (1-169) GppNHp/3×FLAG-PI3KCA (157-299) (Homo sapiens, UniProt P01116, G12D/Q25A); experiment: HTRF PI3KCA-KRAS G12D/Q25A-GppNHp disruption assay; format: biochemical; conditions: 1 h incubation
T2 construct: Avi-KRAS G12D/Q25A (1-169) GppNHp
In short: as §1

T2 sequence (P01116 1-169 isoform P01116-2 G12D/Q25A limits assumed): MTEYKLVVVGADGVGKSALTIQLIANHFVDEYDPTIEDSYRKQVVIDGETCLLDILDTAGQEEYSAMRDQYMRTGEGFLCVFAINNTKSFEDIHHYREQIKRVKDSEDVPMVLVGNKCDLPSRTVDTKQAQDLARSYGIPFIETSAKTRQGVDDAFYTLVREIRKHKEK
T1 sequence (P01116 1-169 isoform P01116-2 G12D limits assumed): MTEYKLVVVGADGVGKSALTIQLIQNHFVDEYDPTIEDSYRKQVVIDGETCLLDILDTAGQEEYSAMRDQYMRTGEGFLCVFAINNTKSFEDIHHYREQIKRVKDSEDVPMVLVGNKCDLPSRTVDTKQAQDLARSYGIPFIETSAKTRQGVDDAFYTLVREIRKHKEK

Row | Compound | IC50 [1] | IC50 [2] | IC50 [3]
1 | N#Cc1c(N)sc2c(F)ccc(-c3c(C(F)(F)F)cc4c(N5CC6CCC(C5)N6)nc(OCC5(CN6CC[C@@H](F)C6)CC5)nc4c3F)c12 [Compound 330] | ≤ 100 nM | ≤ 100 nM | 100 to 1000 nM
2 | Fc1c(-c2cc(C(F)F)cc3ccccc23)c(C(F)(F)F)cc2c(N3CC4CCC(C3)N4)nc(OCC34CCCN3CCC4)nc12 [Compound 331] | > 1000 nM | 10000 to 30000 nM | 10000 to 30000 nM
3 | C[C@@H]1C[C@@H](N(C)c2nc(OC[C@@]34CCCN3C[C@H](F)C4)nc3cc(-c4ccc(F)c5sc(N)nc45)c(C(F)(F)F)cc23)CN1 [Compound 336] | 100 to 1000 nM | 100 to 1000 nM | 1000 to 10000 nM
4 | N#Cc1c(N)sc2c(F)ccc(-c3c(C(F)(F)F)cc4c(N5CC6CCC(C5)N6)nc(OCC5(CN6CCOCC6)CC5)nc4c3F)c12 [Compound 337] | ≤ 100 nM | ≤ 100 nM | 100 to 1000 nM
5 | Fc1c(-c2ccc(F)c3sc(C(F)F)nc23)c(C(F)(F)F)cc2c(N3CC4CCC(C3)N4)nc(OC[C@@]34CCCN3C[C@H](F)C4)nc12 [Compound 339] | > 1000 nM | 10000 to 30000 nM | 10000 to 30000 nM
6 | CN1CCC(Oc2nc(N3CC4CCC(C3)N4)c3cc(C(F)(F)F)c(-c4ccc(F)c5sc(N)nc45)c(F)c3n2)CC1 [Compound 340] | 100 to 1000 nM | 1000 to 10000 nM | 1000 to 10000 nM
7 | N#Cc1c(O)cccc1-c1c(C(F)(F)F)cc2c(N3CC4CCC(C3)N4)nc(OCC34CCCN3CCC4)nc2c1F [Compound 341] | > 1000 nM | 10000 to 30000 nM | 10000 to 30000 nM
8 | N#Cc1c(N)cccc1-c1c(C(F)(F)F)cc2c(N3CC4CCC(C3)N4)nc(OCC34CCCN3CCC4)nc2c1F [Compound 342] | > 1000 nM | 10000 to 30000 nM | 10000 to 30000 nM
9 | Nc1nc2c(-c3c(C(F)(F)F)cc4c(N5C[C@H]6CC[C@@H](C5)N6)nc(OC[C@@]56CCCN5C[C@H](F)C6)nc4c3O)ccc(F)c2s1 [Compound 343, 7-(2-amino-7-fluorobenzo[d]thiazol-4-yl)-4-((1R,5S)-3,8-diazabicyclo[3.2.1]octan-3-yl)-2-(((2R,7aS)-2-fluorotetrahydro-1H-pyrrolizin-7a(5H)-yl)methoxy)-6-(trifluoromethyl)quinazolin-8-ol] | > 1000 nM | 10000 to 30000 nM | 10000 to 30000 nM
10 | Nc1c(F)c(F)c(F)c(-c2c(C(F)(F)F)cc3c(N4CC5CCC(C4)N5)nc(OCC45CCCN4CCC5)nc3c2F)c1Cl [Compound 346] | > 1000 nM | 10000 to 30000 nM | 10000 to 30000 nM
11 | Nc1nc2c(-c3c(C(F)(F)F)cc4c(N5CC[C@@H]6CCNC[C@@H]65)nc(OCC56CCCN5CCC6)nc4c3F)ccc(F)c2s1 [Compound 349] | > 1000 nM | 1000 to 10000 nM | 1000 to 10000 nM
12 | N#Cc1c(N)sc2c(F)ccc(-c3ccc4c(N5CC6CCC(C5)N6)nc(OC[C@@]56CCCN5C[C@H](F)C6)nc4c3F)c12 [Compound 358] | ≤ 100 nM | 100 to 1000 nM | 1000 to 10000 nM
13 | N#Cc1cc2c(N3C[C@H]4CC[C@@H](C3)N4)nc(OC[C@@]34CCCN3C[C@H](F)C4)nc2c(F)c1-c1ccc(F)c2sc(N)c(C#N)c12 [Compound 359, 7-(2-amino-3-cyano-7-fluorobenzo[b]thiophen-4-yl)-4-((1R,5S)-3,8-diazabicyclo[3.2.1]octan-3-yl)-8-fluoro-2-(((2R,7aS)-2-fluorotetrahydro-1H-pyrrolizin-7a(5H)-yl)methoxy)quinazoline-6-carbonitrile] | ≤ 100 nM | 100 to 1000 nM | 100 to 1000 nM
14 | CN(c1nc(OC[C@@]23CCCN2C[C@H](F)C3)nc2c(F)c(-c3ccc(F)c4sc(N)c(C#N)c34)c(C(F)(F)F)cc12)[C@]1(C)CCNC1 [Compound 360] | ≤ 100 nM | ≤ 100 nM | 100 to 1000 nM

Further lines, results first:

Row | IC50 [1] | IC50 [2] | IC50 [3] | Compound
15 | > 1000 nM | 1000 to 10000 nM | 1000 to 10000 nM | Nc1nc2c(-c3c(C(F)(F)F)cc4c(N[C@H]5CCC[C@H](N)C5)nc(OCC56CCCN5CCC6)nc4c3F)ccc(F)c2s1 [Compound 328]
16 | > 1000 nM | 10000 to 30000 nM | 10000 to 30000 nM | Nc1nc2c(-c3c(C(F)(F)F)cc4c(N[C@H]5CCC[C@@H](N)C5)nc(OCC56CCCN5CCC6)nc4c3F)ccc(F)c2s1 [Compound 329]
17 | 100 to 1000 nM | 100 to 1000 nM | 1000 to 10000 nM | Nc1nc2c(-c3c(C(F)(F)F)cc4c(N5CCC[C@H]6NCC[C@H]65)nc(OCC56CCCN5CCC6)nc4c3F)ccc(F)c2s1 [Compound 332]
18 | > 1000 nM | 1000 to 10000 nM | 1000 to 10000 nM | Nc1nc2c(-c3c(C(F)(F)F)cc4c(N5CC[C@@H]6NCC[C@@H]65)nc(OCC56CCCN5CCC6)nc4c3F)ccc(F)c2s1 [Compound 333]
19 | > 1000 nM | 1000 to 10000 nM | 1000 to 10000 nM | Nc1nc2c(-c3c(C(F)(F)F)cc4c(N[C@@H]5CCC6(CNC6)C5)nc(OCC56CCCN5CCC6)nc4c3F)ccc(F)c2s1 [Compound 334]
20 | > 1000 nM | 100 to 1000 nM | 100 to 1000 nM | Nc1nc2c(-c3c(C(F)(F)F)cc4c(N[C@H]5CCC6(CNC6)C5)nc(OCC56CCCN5CCC6)nc4c3F)ccc(F)c2s1 [Compound 335]
21 | 100 to 1000 nM | 100 to 1000 nM | 100 to 1000 nM | CN(c1nc(OC[C@@]23CCCN2C[C@H](F)C3)nc2c(F)c(-c3ccc(F)c4sc(N)c(C#N)c34)ccc12)[C@@H]1CCNC1 [Compound 344]
22 | 100 to 1000 nM | 100 to 1000 nM | 100 to 1000 nM | CN(c1nc(OC[C@@]23CCCN2C[C@H](F)C3)nc2c(F)c(-c3ccc(F)c4sc(N)c(C#N)c34)c(C#N)cc12)[C@@H]1CCNC1 [Compound 345, 7-(2-amino-3-cyano-7-fluorobenzo[b]thiophen-4-yl)-8-fluoro-2-(((2R,7aS)-2-fluorotetrahydro-1H-pyrrolizin-7a(5H)-yl)methoxy)-4-(methyl((R)-pyrrolidin-3-yl)amino)quinazoline-6-carbonitrile]
23 | ≤ 100 nM | 100 to 1000 nM | 100 to 1000 nM | CN(c1nc(OC[C@@]23CCCN2C[C@H](F)C3)nc2cc(-c3ccc(F)c4sc(N)c(C#N)c34)c(C(F)(F)F)cc12)[C@H]1CNC[C@H]1F [Compound 347]
24 | > 1000 nM | 1000 to 10000 nM | 1000 to 10000 nM | Nc1nc2c(-c3c(C(F)(F)F)cc4c(N5CC[C@H]6CCNC[C@H]65)nc(OCC56CCCN5CCC6)nc4c3F)ccc(F)c2s1 [Compound 348]
25 | 100 to 1000 nM | 100 to 1000 nM | 100 to 1000 nM | Nc1nc2c(-c3c(C(F)(F)F)cc4c(N5CC[C@@H]6CNC[C@@H]65)nc(OC[C@@]56CCCN5C[C@H](F)C6)nc4c3F)ccc(F)c2s1 [Compound 351]
26 | 100 to 1000 nM | 1000 to 10000 nM | 1000 to 10000 nM | Nc1nc2c(-c3c(C(F)(F)F)cc4c(N5CC[C@H]6CNC[C@H]65)nc(OC[C@@]56CCCN5C[C@H](F)C6)nc4c3F)ccc(F)c2s1 [Compound 352]
27 | ≤ 100 nM | 100 to 1000 nM | 100 to 1000 nM | CN(c1nc(OC[C@@]23CCCN2C[C@H](F)C3)nc2c(F)c(-c3ccc(F)c4sc(N)c(C#N)c34)c(C(F)(F)F)cc12)[C@H]1CNC[C@H]1F [Compound 353]
28 | 100 to 1000 nM | 100 to 1000 nM | 100 to 1000 nM | CN(c1nc(OC[C@@]23CCCN2C[C@H](F)C3)nc2cc(-c3ccc(F)c4sc(N)nc34)c(C(F)(F)F)cc12)[C@H]1CNC[C@H]1F [Compound 354]
29 | ≤ 100 nM | 100 to 1000 nM | 1000 to 10000 nM | CN(c1nc(OC[C@@]23CCCN2C[C@H](F)C3)nc2c(F)c(-c3ccc(F)c4sc(N)c(C#N)c34)c(C(F)(F)F)cc12)[C@H]1CNC[C@@H]1F [Compound 355]
30 | 100 to 1000 nM | 1000 to 10000 nM | 1000 to 10000 nM | CN(c1nc(OC[C@@]23CCCN2C[C@H](F)C3)nc2cc(-c3ccc(F)c4sc(N)c(C#N)c34)c(C(F)(F)F)cc12)[C@H]1CNC[C@@H]1F [Compound 356]
31 | 100 to 1000 nM | 1000 to 10000 nM | 1000 to 10000 nM | C[C@@H]1C[C@@H](N(C)c2nc(OC[C@@]34CCCN3C[C@H](F)C4)nc3c(F)c(-c4ccc(F)c5sc(N)c(C#N)c45)ccc23)CN1 [Compound 357]
